Data taken from patent publication US20230176063A1, “PHOTOREACTIVE AND CLEAVABLE PROBES FOR TAGGING BIOMOLECULES” (Academia Sinica, priority 2020, published 2023).

System: nucleolin
Assay: photoselective tagging of nucleolin using azo probe
Format: cell-based
Details: fixed U2OS cells
Protocol: Nucleolin is a protein found in the nucleolus of eukaryotic cells and involved in the synthesis of ribosomes. Azo-probe 1 was conjugated to a secondary antibody by using BCN-NHS (CAS# 1516551-46-4) as additional linker between Azo-probe 1 and secondary antibody. A sample of U2OS cells was grown on a glass-bottom chamber slide and fixed with 2.4% PFA. The antibody conjugated with Azo-probe 1 was applied to the sample stained with anti-nucleolin antibody. The sample was exposed to 780 nm two-photon irradiation (200mW, 200 µs/pixel) to photocrosslink the light activated warhead to the antibody and subsequently incubated with 1 M sodium dithionite at room temperature for over 16 h to remove non-crosslinked probes. Neutravidin conjugated to Alexa Fluor 647 dye was added and the sample assayed for the Alexa Fluor 647. Alexa Fluor 647 is a bright, far-red-fluorescent dye with excitation ideally suited for the 594 nm or 633 nm laser lines. Results are shown in the top panel of FIG. 12B. A close-up view is shown in the top right side of FIG. 12B. […] A side view is shown in the bottom right of FIG. 12B.

Q: `O=C(CCCC[C@@H]1SC[C@@H]2NC(=O)N[C@@H]21)N[C@@H](Cc1cn(CCOCCOCCOCCNC(=O)c2ccc(C(=O)c3ccccc3)cc2)nn1)C(=O)NCCc1ccc(O)c(/N=N/c2ccc(C(=O)ON3C(=O)CCC3=O)cc2)c1` [Azo-probe 1] was tested. Which “Alexa Fluor 647 (Neutravidin) staining of tagged nucleolin” value (probe conjugated to secondary antibody via BCN-NHS, 780 nm two-photon irradiation (200mW, 200 µs/pixel), 1 M sodium dithionite over 16 h) did it give?
A: The value was “characteristic nucleoli shape is observed”.

Q: And the “Alexa Fluor 647 (Neutravidin) staining of tagged nucleolin, control region” value (treated the same but not exposed to photoactivating light)?
A: The value was “No significant staining was observed”.
